Data on 26 compounds can be found in patent publication US20150344404A1, “PDK4 INHIBITOR AND USE THEREOF” (THE KITASATO INSTITUE, priority 2012, published 2015).

For one series, the system named is PDK isozymes 1, 2 and 3.
Assay: not given
Particulars: background art; cited from earlier work.
For `CN(C)C(=O)c1ccc(S(=O)(=O)c2ccc(NC(=O)[C@@](C)(O)C(F)(F)F)c(Cl)c2)cc1` [AZD7545], the “IC50 against PDK isozymes 1, 2 and 3” value is recorded as “sub μM order”.

In another series the target is recombinant human PDK4 (Homo sapiens, UniProt Q16654). Put plainly: PDK4 enzyme inhibitory activity by off-chip mobility shift assay. It is filed as biochemical. Particulars: Table 34; recombinant human PDK4, room temperature, 5 hours; read-out: IC50, PDK inhibitory activity of representative compounds. The method, then: Measurement of PDK4/PDK2 inhibitory activity by off-chip mobility shift assay: The compound solution (5 μL), 4×substrate/ATP/metal mixture (5 μL) and 2×recombinant human PDK4 (5 μL) were added to 384 well micro plate. After reacting at room temperature for 5 hours, the reaction stop solution (60 μL) was added to above solution. The substrate peptide (S) and phosphorylated peptide (P) was quantified using LabChip3000, then the inhibitory activity was calculated from the ratio (P/P+S).
recombinant human PDK4, sequence (Q16654 whole entry): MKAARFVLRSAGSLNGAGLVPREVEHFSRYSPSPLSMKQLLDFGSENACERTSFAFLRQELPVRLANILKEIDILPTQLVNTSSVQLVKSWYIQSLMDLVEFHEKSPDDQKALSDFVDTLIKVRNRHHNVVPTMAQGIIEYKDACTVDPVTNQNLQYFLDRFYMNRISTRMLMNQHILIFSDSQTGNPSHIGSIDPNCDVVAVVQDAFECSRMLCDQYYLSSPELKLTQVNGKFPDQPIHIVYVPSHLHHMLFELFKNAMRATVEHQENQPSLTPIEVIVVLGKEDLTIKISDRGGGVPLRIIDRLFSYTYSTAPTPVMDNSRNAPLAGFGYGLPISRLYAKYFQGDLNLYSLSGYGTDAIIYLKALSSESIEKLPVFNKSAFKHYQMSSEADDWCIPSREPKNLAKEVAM
Consider `CC1=CC(=O)c2cc(C(C)O)ccc2C1=O` (racemic) [KIS92, (±)-2-methyl-6-(1-hydroxyethyl)-1,4-naphthoquinone], for which the IC50 was determined as 46 µM.
The same measure, in the same setting: with `CC1=CC(=O)c2ccccc2C1=O` [KIS12] the figure was 38 µM; with `O=C(O)c1ccc2c(c1)C(=O)C=CC2=O` [KIS19], 19 µM.
Take `O=C1CCC(=O)c2c(O)ccc(O)c21` [KIS58]: the IC50 is 12 µM.
Take `Cc1cc(N)c2ccccc2c1O` [KIS61]: the IC50 is 27 µM.
For `COC1=CC(=O)c2ccccc2C1=O` [KIS69], the IC50 was found to be 26 µM.
For `CC1=CC(=O)c2ccc(C(=O)O)cc2C1=O` [KIS78, 7-carboxyl-2-methyl-1,4-naphthoquinone], the concentration for half-maximal inhibition (IC50) worked out at 46 µM.
The same measure, in the same setting: for `COC(=O)c1cc(O)c2c(c1)C(=O)C(C)=CC2=O` [KIS79, 7-carbomethoxy-5-hydroxy-2-methyl-1,4-naphthoquinone] the value was 9 µM; for `CC1=CC(=O)c2c(O)cc(C(=O)O)cc2C1=O` [KIS90, 7-carboxy-5-hydroxy-2-methyl-1,4-naphthoquinone], 20 µM; for `CC1=CC(=O)c2cc(C(=O)O)ccc2C1=O` [KIS93, 6-carboxyl-2-methyl-1,4-naphthoquinone], 36 µM.
For `COC(=O)c1ccc2c(c1)C(=O)C=C(C)C2=O` [KIS95, 6-carbomethoxy-2-methyl-1,4-naphthoquinone], the half-inhibitory concentration (IC50) turned out to be 26 µM.
On the same count and under the same terms, for `CC1=CC(=O)c2cc(CO)ccc2C1=O` [KIS96, 6-hydroxymethyl-2-methyl-1,4-naphthoquinone] the value was 30 µM; for `CC1=CC(=O)c2cc(C=O)ccc2C1=O` [KIS97, 6-formyl-2-methyl-1,4-naphthoquinone], 18 µM.
Regarding `CC1=CC(=O)c2cc(C(=O)NCC(=O)OC(C)(C)C)ccc2C1=O` [KIS98, Glycine, N-[(1,4-dihydro-1,4-dioxo-2-methyl-6-naphthylenyl)carbonyl], tert-butyl ester], the concentration for half-maximal inhibition (IC50) is 23 µM.
In the case of `CC1=CC(=O)c2cc(C(=O)NCC(=O)O)ccc2C1=O` [KIS99, N-[(1,4-dihydro-1,4-dioxo-2-methyl-6-naphthylenyl)carbonyl]glycine], the IC50 worked out at 21 µM.

Staying with this series, now noted: Table 35; recombinant human PDK4, room temperature, 5 hours; read-out: IC50.
Take `CC1=CC(=O)c2ccncc2C1=O` [KIS118]: the half-maximal inhibitory concentration (IC50) turned out to be 16 µM.
As for `CC1=CC(=O)c2ccc(C=O)cc2C1=O` [KIS126], the IC50 came out at 22 µM.
On the same count and under the same terms, with `CCOC(=O)c1ccc2c(c1)C(=O)C=C(C)C2=O` [KIS127] the figure was 26 µM; with `CC1=CC(=O)c2ccc(CO)cc2C1=O` [KIS128], 27 µM.
The same measure, in the same setting: with `CC1=CC(=O)c2cc(C(=O)N[C@@H](CO)C(=O)O)ccc2C1=O` [KIS131, N-[(1,4-dihydro-1,4-dioxo-2-methyl-6-naphthylenyl)carbonyl]serine] the figure was 20 µM; with `CC1=C(Br)C(=O)c2ccccc2C1=O` [KIS147], 26 µM; with `CC(=O)OCc1ccc2c(c1)C(=O)C=C(C)C2=O` [KIS148], 19 µM.
As to `CC1=CC(=O)c2cc(C=CC(=O)NCC(=O)O)ccc2C1=O` [KIS151], the IC50 came to 17 µM.
Take `C#CCNC(=O)c1ccc2c(c1)C(=O)C=C(C)C2=O` [KIS153]: the half-inhibitory concentration (IC50) was 36 µM.

System in a further series: not given
Assay: not given
Particulars: background art; cited from earlier work.
Turning to `O=C(O)C(Cl)Cl` [Dichloro acetic acid], the side effect entry is reported as “neurotoxicity”.
